Test results: patent US10160771B2, “Hepatitis C virus inhibitors and uses thereof in preparation of drugs” (priority 2014, dated 2018)

Tests used:
[1] = test system: HCV genotype 1a (HCV-1a) replicon cells; test: HCV genotype 1a replicon luciferase assay (EC50); format: cell-based, hepatitis C virus genotype 1a (H77 clone); conditions: 3 days, luciferase (Bright-Glo)
Method in brief: (§1)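 EC50 values come from nonlinear fitting of inhibition derived from replicon luciferase signal. Cells (8000/well) were treated 3 days with duplicate 6-point, 5-fold dilutions, starting at 100, 10 or 1 nM, with 0.5% DMSO.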

[2] = test system: HCV genotype 1b (HCV-1b) replicon cells; test: HCV genotype 1b replicon luciferase assay (EC50); format: cell-based, hepatitis C virus genotype 1b (Con1 clone); conditions: 3 days, luciferase (Bright-Glo)
Method in brief: as §1

[3] = Cell Titer-fluor cell activity assay in HCV-1b replicon cells (CC50); format: cell-based
Method in brief: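 CC50 derived by nonlinear fitting of inhibition % from Cell Titer-fluor signal (405/515 nm, 30 min). Cells: genotype 1b Con1 replicon carrying E1202G, T1280I, K1846T, seeded 8000/well with compound for 3 days, 37 °C, 0.5% DMSO; 6 points, 5-fold dilution, top 100, 10 or 1 nM, duplicates.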

Structure (SMILES) | EC50 ([1]; Hepatitis C virus, 72 h) | EC50 ([2]; Hepatitis C virus, 72 h) | CC50 at 3 days [3] | EC50 [2] | EC50 [1]
COC(=O)NC(C(=O)N1CCC[C@H]1c1ncc(-c2ccc(-c3ccc(-c4cnc(C5C6CCC(C6)[C@@H]5C(=O)NCc5cccnc5)[nH]4)cc3)cc2)[nH]1)C1CCOCC1 (stereo partly drawn) [AA_191] | 1 to 10 nM | 0.101 to 1 nM | > 1 nM | – | –
COC(=O)N[C@H](C(=O)N1CCC[C@H]1c1ncc(-c2ccc(-c3ccc(-c4cnc([C@@H]5C6CCC(C6)[C@H]5C(=O)NCc5cccnc5OC)[nH]4)cc3)cc2)[nH]1)C(C)C (stereo partly drawn) [AA_203_B] | 1 to 10 nM | 0.001 to 0.1 nM | > 1 nM | – | –
COC(=O)N[C@H](C(=O)N1CCC[C@H]1c1ncc(-c2ccc(-c3ccc(-c4cnc(C5C6CCC(C6)[C@@H]5C(=O)N[C@H](C)c5cccnc5)[nH]4)cc3)cc2)[nH]1)[C@@H](C)OC (single isomer, unassigned) [AA_253_A] | 10 to 100 nM | – | > 1 nM | 0.101 to 1 nM | –
COC(=O)N[C@H](C(=O)N1CCC[C@H]1c1ncc(-c2ccc(-c3ccc(-c4cnc([C@H]5C6CCC(C6)[C@@H]5C(=O)NCc5ccc(N)cc5)[nH]4)cc3)cc2)[nH]1)C(C)C (stereo partly drawn) [AA_210_A] | 10 to 100 nM | 0.001 to 0.1 nM | > 1 nM | – | –
COC(=O)N[C@H](C(=O)N1CCC[C@H]1c1ncc(-c2ccc(-c3ccc(-c4cnc(C5C6CCC(C6)[C@H]5C(=O)NCc5ccncc5)[nH]4)cc3)cc2)[nH]1)[C@@H](C)OC (stereo partly drawn) [AA_248_A] | 10 to 100 nM | 0.101 to 1 nM | > 1 nM | – | –
COC(=O)N[C@H](C(=O)N1CCC[C@H]1c1ncc(-c2ccc(-c3ccc(-c4cnc([C@H]5C6CCC(C6)[C@@H]5C(=O)NCc5ccccc5N)[nH]4)cc3)cc2)[nH]1)C(C)C (stereo partly drawn) [AA_194] | 10 to 100 nM | 0.001 to 0.1 nM | > 1 nM | – | –
CCOC(=O)CNC(=O)[C@@H](NC(=O)[C@@H]1[C@@H]2CC[C@@H](C2)[C@H]1c1ncc(-c2ccc(-c3ccc(-c4cnc([C@@H]5CCCN5C(=O)[C@@H](NC(=O)OC)C(C)C)[nH]4)cc3)cc2)[nH]1)C(C)C [AA_301_ENDOA2] | 10 to 100 nM | 0.101 to 1 nM | > 1 nM | – | –
COC(=O)NC(C(=O)N1CCC[C@H]1c1nc2ccc(-c3ccc(-c4[nH]c([C@@H]5CCCN5C(=O)[C@@H](NC(=O)OC)C(C)OC)c5c4CCC5)cc3)cc2[nH]1)[C@@H](C)OC (stereo partly drawn) [AG_092] | 10 to 100 nM | 0.001 to 0.1 nM | > 1 nM | – | –
COC(=O)N[C@H](C(=O)N1CCC[C@H]1c1ncc(-c2ccc(-c3ccc(-c4cnc(C5C6CCC(C6)[C@H]5C(=O)NCc5ccc(C(C)C)nc5)[nH]4)cc3)cc2)[nH]1)[C@@H](C)OC (stereo partly drawn) [AA_265_B] | 10 to 100 nM | 0.101 to 1 nM | > 1 nM | – | –
COC(=O)N[C@H](C(=O)N1CCC[C@H]1c1ncc(-c2ccc(-c3ccc(-c4cnc([C@@H]5[C@H]6CC[C@H](C6)[C@H]5C(=O)NC5(c6ccccc6)CC5)[nH]4)cc3)cc2)[nH]1)C(C)C [AA_273_ENDOA2] | 1 to 10 nM | 0.001 to 0.1 nM | > 1 nM | – | –
COC(=O)N[C@H](C(=O)N1CCC[C@H]1c1ncc(-c2ccc(-c3ccc(-c4[nH]c([C@@H]5CCCN5C(=O)[C@@H](NC(=O)OC)C(C)C)c5c4CCCC5)cc3)cc2)[nH]1)C(C)C [AG_015_A] | 10 to 100 nM | 0.001 to 0.1 nM | > 1 nM | – | –
COC(=O)N[C@H](C(=O)N1CCC[C@H]1c1ncc(-c2ccc(-c3ccc(-c4cnc([C@@H]5[C@H]6CC[C@H](C6)[C@H]5C(=O)N(C)c5ccccn5)[nH]4)cc3)cc2)[nH]1)C(C)C [AA_195_ENDOA2] | 0.101 to 1 nM | 0.001 to 0.1 nM | > 1 nM | – | –
COC(=O)N[C@H](C(=O)N1CCC[C@H]1c1ncc(-c2ccc(-c3ccc(-c4cnc(C5C6CCC(C6)[C@@H]5C(=O)NCc5cccnc5)[nH]4)cc3)cc2)[nH]1)[C@@H](C)OC (stereo partly drawn) [AA_179_B] | 1 to 10 nM | 0.001 to 0.1 nM | > 1 nM | – | –
CNC(=O)[C@@H](NC(=O)[C@@H]1[C@@H]2CC[C@@H](C2)[C@H]1c1ncc(-c2ccc(-c3ccc(-c4cnc([C@@H]5CCCN5C(=O)[C@@H](NC(=O)OC)C(C)C)[nH]4)cc3)cc2)[nH]1)C(C)C [AA_298_ENDOA2] | 1 to 10 nM | 0.001 to 0.1 nM | > 1 nM | – | –
COC(=O)N[C@H](C(=O)N1CCC[C@H]1c1ccc(-c2ccc(-c3ccc(-c4cnc([C@@H]5CC6(CCCC6)CN5C(=O)[C@@H](NC(=O)OC)[C@@H](C)OC)[nH]4)cc3)cc2)[nH]1)[C@@H](C)OC [AG_110] | 0.101 to 1 nM | 0.001 to 0.1 nM | > 1 nM | – | –
COC(=O)N[C@H](C(=O)N1CCC[C@H]1c1ncc(-c2ccc(-c3ccc(-c4[nH]c([C@@H]5CCCN5C(=O)[C@@H](NC(=O)OC)C(C)C)c5c4OCC5)cc3)cc2)[nH]1)C(C)C [AG_122_A] | – | – | > 1 nM | 0.001 to 0.1 nM | 1 to 10 nM

Structure (SMILES) | EC50 ([1]; Hepatitis C virus, 72 h) | EC50 ([2]; Hepatitis C virus, 72 h) | CC50 at 3 days [3] | EC50 [2] | EC50 [1]
COC(=O)N[C@H](C(=O)N1CCC[C@H]1c1ncc(-c2ccc(-c3ccc(-c4cnc(C5C6CCC(C6)[C@@H]5C(=O)NC(C)c5cnccn5)[nH]4)cc3)cc2)[nH]1)[C@@H](C)OC (single isomer, unassigned) [AA_281_A] | – | – | > 1 nM | 0.001 to 0.1 nM | 0.101 to 1 nM
COC(=O)N[C@H](C(=O)N1CCC[C@H]1c1ncc(-c2ccc(-c3ccc(-c4cnc([C@H]5C6CCC(C6)[C@@H]5C(=O)NC(c5cccnc5)C(C)C)[nH]4)cc3)cc2)[nH]1)C(C)C (single isomer, unassigned) [AA_233_A] | – | – | > 1 nM | 0.001 to 0.1 nM | 0.101 to 1 nM
COC(=O)N[C@H](C(=O)N1CCC[C@H]1c1ncc(-c2ccc(-c3ccc(-c4cnc(C5C6CCC(C6)[C@H]5C(=O)NCc5cccnc5C(C)C)[nH]4)cc3)cc2)[nH]1)[C@@H](C)OC (stereo partly drawn) [AA_245_A] | 10 to 100 nM | 0.001 to 0.1 nM | > 1 nM | – | –
COC(=O)N[C@H](C(=O)N1CCC[C@H]1c1[nH]c(-c2ccc(-c3ccc(-c4cnc([C@@H]5CCCCN5C(=O)[C@@H](NC(=O)OC)[C@@H](C)OC)[nH]4)cc3)cc2)c2c1CCCO2)C(C)C [AG_121] | 10 to 100 nM | 0.001 to 0.1 nM | > 1 nM | – | –
COC(=O)N[C@H](C(=O)N1CCC[C@H]1c1ncc(-c2ccc(-c3ccc(-c4cnc(C5C6CCC(C6)[C@@H]5C(=O)NCCc5ccncc5)[nH]4)cc3)cc2)[nH]1)[C@@H](C)OC (stereo partly drawn) [AA_266_A] | 1 to 10 nM | 0.101 to 1 nM | > 1 nM | – | –
COC(=O)N[C@H](C(=O)N1CCC[C@H]1c1ncc(-c2ccc(-c3ccc(-c4cnc([C@H]5C6CCC(C6)[C@@H]5C(=O)NCc5cccnc5C)[nH]4)cc3)cc2)[nH]1)C(C)C (stereo partly drawn) [AA_217] | 10 to 100 nM | 1 to 10 nM | > 1 nM | – | –
COC(=O)N[C@H](C(=O)N1CCC[C@H]1c1ncc(-c2ccc(-c3ccc(-c4cnc(C5C6CCC(C6)[C@H]5C(=O)NNc5nccnc5Cl)[nH]4)cc3)cc2)[nH]1)[C@@H](C)OC (stereo partly drawn) [AA_250_B] | 10 to 100 nM | 1 to 10 nM | > 1 nM | – | –
COC(=O)N[C@H](C(=O)N1CCC[C@H]1c1ncc(-c2ccc(-c3ccc(-c4cnc(C5C6CCC(C6)[C@@H]5C(=O)NNc5cccnc5)[nH]4)cc3)cc2)[nH]1)[C@@H](C)OC (stereo partly drawn) [AA_258_B] | 10 to 100 nM | 1 to 10 nM | > 1 nM | – | –
COC(=O)N[C@H](C(=O)N1CCC[C@H]1c1ncc(-c2ccc(-c3ccc(-c4cnc([C@@H]5[C@H]6CC[C@H](C6)[C@H]5C(=O)N[C@@H](CO)c5cccnc5)[nH]4)cc3)cc2)[nH]1)C(C)C [AA_243_ENDOA2_A] | 1 to 10 nM | 0.001 to 0.1 nM | > 1 nM | – | –
COC(=O)N[C@H](C(=O)N1CCC[C@H]1c1ncc(-c2ccc(-c3ccc(-c4[nH]c([C@H]5CCCN5C(=O)[C@@H](NC(=O)OC)C(C)OC)c5c4COC5)cc3)cc2)[nH]1)C(C)C (stereo partly drawn) [AG_079_B] | 1 to 10 nM | 0.101 to 1 nM | > 5 nM | – | –
COC(=O)N[C@H](C(=O)N1CCC[C@H]1c1ncc(-c2ccc(-c3ccc(-c4cnc([C@@H]5C6CCC(C6)[C@H]5C(=O)NCc5cnccn5)[nH]4)cc3)cc2)[nH]1)C(C)C (stereo partly drawn) [AA_206_B] | 1 to 10 nM | 0.001 to 0.1 nM | > 1 nM | – | –
COC(=O)N[C@H](C(=O)N1CCC[C@H]1c1ncc(-c2ccc(-c3ccc(-c4cnc([C@@H]5C6CCC(C6)[C@H]5C(=O)NCc5cccnc5C(C)C)[nH]4)cc3)cc2)[nH]1)C(C)C (stereo partly drawn) [AA_215_B] | 10 to 100 nM | 0.001 to 0.1 nM | > 1 nM | – | –
COC(=O)N[C@H](C(=O)N1CCC[C@H]1c1ncc(-c2ccc(-c3ccc(-c4cnc([C@H]5CCCC[C@@H]5C(=O)NC5(c6cccnc6)CC5)[nH]4)cc3)cc2)[nH]1)C(C)C [AA_186] | 1 to 10 nM | 0.101 to 1 nM | > 5 nM | – | –
COC(=O)N[C@H](C(=O)N1CCC[C@H]1c1ncc(-c2ccc(-c3ccc(-c4cnc([C@@H]5C6CCC(C6)[C@H]5C(=O)NC(CO)c5ccccn5)[nH]4)cc3)cc2)[nH]1)C(C)C (stereo partly drawn) [AA_243_B] | 0.101 to 1 nM | 0.001 to 0.1 nM | > 1 nM | – | –
COC(=O)N[C@H](C(=O)N1CCC[C@H]1c1ncc(-c2ccc(-c3ccc(-c4cnc([C@H]5C6CCC(C6)[C@@H]5C(=O)NCc5cccs5)[nH]4)cc3)cc2)[nH]1)C(C)C (stereo partly drawn) [AA_196_A] | 1 to 10 nM | 0.001 to 0.1 nM | > 1 nM | – | –
COC(=O)N[C@H](C(=O)N1CCC[C@H]1c1ncc(-c2ccc(-c3ccc(-c4cnc(C5C6CCC(C6)[C@@H]5C(=O)NCc5ccncc5)[nH]4)cc3)cc2)[nH]1)[C@@H](C)OC (stereo partly drawn) [AA_248_B] | 10 to 100 nM | 0.101 to 1 nM | > 1 nM | – | –
